# Results published in US5177087A, “Cyclic amine compounds and their use” (Takeda Chemical Industries, Ltd., priority 1989, dated 1993).
# Where a name gives a salt, the structure may show the parent alone. Read-outs that look alike come from different tables or passages of the source.
# Tests used:
# [1] = Antihypoxic action: survival time of mice in a decompressed desiccator; type: in vivo, Male mice (ICR/Jcl strain); settings: Mus musculus, ip, read-out: survival time of drug-treated group (mean survival time of control group = 100)
# Procedure: Male mice (ICR/Jcl strain, 5-6 weeks old) were divided into two groups, i.e. a control group and a drug-treated group. A desiccator was decompressed to an internal pressure of 35 mmHg with a vacuum pump and, then, connected to two desiccators housing mice of the two groups, respectively. After an equilibrium was established in internal pressure among the desiccators, the time to the onset of respiratory arrest of each mouse in each group was measured and regarded as survival time. Then, taking the mean survival time in the control group as 100, the survival time of the drug-treated group was expressed in percentage (Table 7). The test drug was administered intraperitoneally 30 minutes before induction of hypoxia. The control group received physiological saline.
# [2] = Antiedematous action on the brain: microsphere-induced cerebral edema, water, sodium and ion contents of hemisphere; type: in vivo, Male rats (Wistar/Jcl); settings: 72 hours after microsphere infusion
# From the text: Male rats (Wistar/Jcl, 11 weeks old) underwent cervical incision under ether anesthesia and the pterygopalatine artery and external carotid artery were ligated. After blockade of the common carotid artery bloodstream, a cannula was inserted retrogradely from the external carotid artery and indwelt at the origin of the internal carotid artery. Then, a suspension of carbon microspheres (50±10 μm in diameter) in 20% dextran was infused selectively into the internal carotid artery through the indwelt cannula over a period of about 10 seconds. Seventy-two hours after infusion, the brain was removed and divided into the right and left cerebral hemispheres. Then, the water, sodium and ion contents of each hemisphere were determined. The test drug was administered intraperitoneally 30 minutes before and 5 hours after infusion of the microspheres on the day of microsphere infusion and twice a day, i.e. in the morning and in the afternoon, thereafter till the end of the experiment. 5% Gum arabic was used in the control group.
# [3] = Action on scopolamine-induced impairment of spontaneous alternation in a T-maze; type: in vivo, rats
# Procedure: The nootropic effect of the compound of the invention (Example 59) was investigated using spontaneous alternation in rats (Murray and Fibiger, Behav Neurosci. 100, 23-32, 1986) as an indicator. Nine-week-old rats were used. Feeding was restricted so that the body weight of the rat would be reduced to about 80% of free-feeding weight. Then, training was started. Training consisted of 11 trials. In the first trial one food pellet (45 mg) was placed in each of food receptacles set at ends of two arms and the rat was allowed to select either arm freely for the food reward. In the subsequent 10 trials from the second to the eleventh trial, the diet was placed only on the arm opposite to the arm which had been selected immediately before. The selection of the arm where the diet was placed was regarded as a correct response. In each acquistion trial, the rat was first placed in a home compartment and 15 seconds later the door was opened to let the animal explore freely and select either arm. The rat was brought back to the home compartment after it had ingested the pellet in the case of a correct response or after it had reached the food receptacle in the case of an incorrect response. In the experiment, the rats which had attained the correct response rate of not less than 80% were used. Scopolamine bromide was administered intraperitoneally in a dose of 0.3 mg/kg 30 minutes before the beginning of the experiment and the test compound (Example 59) was administered orally 30 minutes before scopolamine administration. The results of the experiment are expressed in correct response rate. For the analysis of significant difference between the groups, Student's t-test (two-tailed) was used. In the first experiment, groups of 7-9 rats were used, and in the second experiment, groups of 12-14 rats were used. The results are shown in Table 10 (the results in the second experiment are shown in the parentheses).
# [4] = target: T1, cholinesterase (Rattus norvegicus, UniProt P37136); test: Anti-cholinesterase action, (acetyl-[^3 H])-acetylcholine as substrate, S1 fraction of cerebral cortex homogenate; type: biochemical, male Wistar rats
# T1 construct: the S1 fraction of the cerebral cortex homogenate from male Wistar rats was used as cholinesterase source; from tissue; host or cells: cerebral cortex homogenate, S1 fraction, male Wistar rats
# Procedure: The anti-cholinesterase action of the compound of the present invention was investigated using (acetyl-[^3 H])-acetylcholine. Thus, the S1 fraction of the cerebral cortex homogenate from male Wistar rats was used as cholinesterase source, and (acetyl-[^3 H])-acetylcholine as the substrate and the compound of the invention as the test compound were incubated for 30 minutes and after termination of the reaction, a toluene scintillator was added. The mixture was shaken and the radioactivity of the reaction product [^3 H]-acetic acid in the toluene layer was measured with a scintillation counter to estimate the cholinesterase-antagonizing activity.
# The anticholinesterase activity of the test compound was expressed as 50% inhibitory concentration (IC50) in Table 9.
# [5] = 10 mg/kg, i.p., 30 minutes before hypoxia, 35 mmHg
# [6] = 30 minutes incubation, read-out: Anticholinesterase activity IC50
# T1 sequence (P37136 32-614): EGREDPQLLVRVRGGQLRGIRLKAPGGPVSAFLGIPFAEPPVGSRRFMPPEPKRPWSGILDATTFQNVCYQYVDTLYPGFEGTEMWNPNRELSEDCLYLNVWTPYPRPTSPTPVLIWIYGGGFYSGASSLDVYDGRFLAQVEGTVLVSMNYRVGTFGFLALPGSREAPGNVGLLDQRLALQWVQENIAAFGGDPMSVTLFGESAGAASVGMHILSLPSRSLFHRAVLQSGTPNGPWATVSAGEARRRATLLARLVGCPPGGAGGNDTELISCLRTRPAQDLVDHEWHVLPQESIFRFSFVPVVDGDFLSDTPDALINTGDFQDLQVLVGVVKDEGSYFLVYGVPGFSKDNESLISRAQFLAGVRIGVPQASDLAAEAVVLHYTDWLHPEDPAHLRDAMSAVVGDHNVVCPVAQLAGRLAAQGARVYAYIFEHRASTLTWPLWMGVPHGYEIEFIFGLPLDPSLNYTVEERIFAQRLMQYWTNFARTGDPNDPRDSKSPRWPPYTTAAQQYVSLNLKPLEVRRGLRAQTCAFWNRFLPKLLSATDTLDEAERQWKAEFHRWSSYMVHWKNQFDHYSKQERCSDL
smiles,measurement,setting,value
O=C(c1ccc(N2CCN(Cc3ccccc3)CC2)cc1)C1CCNCC1 [Example 11-4],response vs control in vivo at 0.1 mg/kg,[1],116 ± 11%
same,response vs control in vivo at 0.5 mg/kg,[1],148 ± 17%
same,response vs control in vivo at 2 mg/kg,[1],288 ± 82%
same,response vs control in vivo at 10 mg/kg,[1]; [5],216 ± 53%
"OC(c1ccncc1)c1ccc(N2CCCCC2)cc1 (stereo not drawn) [Example 12, 4-[(α-Hydroxy-4-piperidino)benzyl]pyridine dihydrochloride]",response vs control in vivo at 0.1 mg/kg,[1],84 ± 4%
same,response vs control in vivo at 0.5 mg/kg,[1],152 ± 19%
same,response vs control in vivo at 2 mg/kg,[1],163 ± 23%
same,response vs control in vivo at 10 mg/kg,[1]; [5],132 ± 8%
OC(c1ccc(N2CCC(Cc3ccccc3)CC2)cc1)C1CCNCC1 (centres unmarked) [Example 14-3],response vs control in vivo at 0.1 mg/kg,[1],108 ± 9%
same,response vs control in vivo at 0.5 mg/kg,[1],162 ± 24%
same,response vs control in vivo at 2 mg/kg,[1],137 ± 11%
same,response vs control in vivo at 10 mg/kg,[1]; [5],398 ± 95%
OC(c1ccc(N2CCN(Cc3ccccc3)CC2)cc1)C1CCNCC1 (centres unmarked) [Example 14-4],response vs control in vivo at 0.5 mg/kg,[1],152 ± 28%
same,response vs control in vivo at 2 mg/kg,[1],188 ± 22%
same,response vs control in vivo at 10 mg/kg,[1]; [5],197 ± 32%
OC(c1ccc(N2CCCCC2)cc1N1CCCCC1)C1CCNCC1 (centres unmarked) [Example 14-6],Water,"[2]; 50 mg × 7, i.p., control group 80.35 ± 0.22",79.36 ± 0.13%
same,Na,"[2]; 50 mg × 7, i.p., control group 305 ± 19",256 ± 5 mEq/kg
same,K,"[2]; 50 mg × 7, i.p., control group 488 ± 11",506 ± 5 mEq/kg
same,response vs control in vivo at 0.1 mg/kg,[1],120 ± 7%
same,response vs control in vivo at 0.5 mg/kg,[1],154 ± 17%
same,response vs control in vivo at 2 mg/kg,[1],143 ± 17%
same,response vs control in vivo at 10 mg/kg,[1]; [5],123 ± 6%
"CN(C)c1ccc(CC2CCNCC2)cc1 [Example 20, 4-(4-Dimethylaminobenzyl)piperidine dihydrochloride]",Water,"[2]; 5 mg × 7, i.p., control group 80.59 ± 0.19",79.80 ± 0.19%
same,Na,"[2]; 5 mg × 7, i.p., control group 306 ± 10",268 ± 8 mEq/kg
same,K,"[2]; 5 mg × 7, i.p., control group 488 ± 2",499 ± 5 mEq/kg
same,response vs control in vivo at 0.5 mg/kg,[1],99 ± 5%
same,response vs control in vivo at 2 mg/kg,[1],118 ± 5%
"c1cc(N2CCCCC2)ccc1CC1CCNCC1 [Example 21-1, 4-(4-piperidinobenzyl)piperidine dihydrochloride]",response vs control in vivo at 0.1 mg/kg,[1],133 ± 11%
same,response vs control in vivo at 0.5 mg/kg,[1],155 ± 21%
same,response vs control in vivo at 2 mg/kg,[1],231 ± 59%
same,response vs control in vivo at 10 mg/kg,[1],277 ± 55%
c1ccc(CC2CCN(c3ccc(CC4CCNCC4)cc3)CC2)cc1 [Example 21-2],response vs control in vivo at 0.1 mg/kg,[1],165 ± 26%
same,response vs control in vivo at 0.5 mg/kg,[1],147 ± 14%
same,response vs control in vivo at 2 mg/kg,[1],147 ± 8%
same,response vs control in vivo at 10 mg/kg,[1]; [5],280 ± 59%
"O=C(CCC1CCN(Cc2ccccc2)CC1)c1ccc(N2CCCC2)cc1 [Example 59, 1-Benzyl-4-[2-(4-pyrrolidinobenzoyl)ethyl]piperidine]",Mean correct response rate ± standard error,"[3]; 3 mg/kg p.o. + scopolamine 0.3 mg/kg i.p., first experiment, scopolamine control 53.8 ± 4.6",61.4 ± 7.1
same,ameliorative effect on correct response rate,[3]; 10 mg/kg,significant ameliorative effect
same,antagonism of the decrease of correct response rate by scopolamine,[3]; 3 and 10 mg/kg p.o.,dose-dependently antagonized
same,IC50,"[4]; Anticholinesterase activity IC50, 30 minutes incubation",27 nM
O=C(CCC1CCN(Cc2ccccc2)CC1)c1ccc(N2CCCCC2)cc1 [Example 60-1],IC50,[4]; [6],52 nM
O=C(CCC1CCN(Cc2ccccc2)CC1)c1ccc(N2CCCCCC2)cc1 [Example 60-2],IC50,[4]; [6],250 nM
CN(C)c1ccc(C(=O)CCC2CCN(Cc3ccccc3)CC2)cc1 [Example 60-3],IC50,[4]; [6],53 nM
CCNc1ccc(C(=O)CCC2CCN(Cc3ccccc3)CC2)cc1 [Example 60-4],IC50,[4]; [6],98 nM
O=C(CCC1CCN(Cc2ccccc2)CC1)c1ccc(N2CCOCC2)cc1 [Example 60-5],IC50,[4]; [6],10 nM
O=C(CCC1CCN(Cc2ccccc2)CC1)c1ccc(-n2ccnc2)cc1 [Example 60-6],IC50,[4]; [6],20 nM
CN1CCN(c2ccc(C(=O)CCC3CCN(Cc4ccccc4)CC3)cc2)CC1 [Example 60-7],IC50,[4]; [6],8.4 nM
CNc1ccc(C(=O)CCC2CCN(Cc3ccccc3)CC2)cc1 [Example 60-8],IC50,[4]; [6],150 nM
O=C(CCC1CCN(Cc2ccccc2)CC1)c1ccc(N2CCCC2)cc1 [Example 60-10],IC50,[4]; [6],40 nM
O=C(CCC1CCN(Cc2ccccc2)CC1)c1ccc(N2CCCC2)cc1 [Example 60-11],IC50,[4]; [6],32 nM
O=C(CCC1CCN(Cc2ccccc2)CC1)c1ccc(N2CCCC2)cc1 [Example 60-12],IC50,[4]; [6],28 nM
CN(C)c1ccc(C(=O)CCC2CCN(Cc3ccccc3)CC2)cc1 [Example 60-13],IC50,[4]; [6],48 nM
CN1CCN(c2ccc(C(=O)CCC3CCN(Cc4ccccc4)CC3)cc2)CC1 [Example 60-14],IC50,[4]; [6],6.8 nM
O=C(CCC1CCN(Cc2ccccc2)CC1)c1ccc(N2CCCCC2)cc1 [Example 60-15],IC50,[4]; [6],61 nM
O=C(CCC1CCN(Cc2ccccc2)CC1)c1ccc(N2CCNCC2)cc1 [Example 60-17],IC50,[4]; [6],6.1 nM
CC(=O)N1CCN(c2ccc(C(=O)CCC3CCN(Cc4ccccc4)CC3)cc2)CC1 [Example 60-19],IC50,[4]; [6],2.9 nM
O=C(CCC1CCN(Cc2ccccc2)CC1)c1ccc(N2CCOCC2)cc1 [Example 60-20],IC50,[4]; [6],15 nM
O=C(CCC1CCN(Cc2ccccc2)CC1)c1ccc(N2CCN(C(c3ccccc3)c3ccccc3)CC2)cc1 [Example 60-21],IC50,[4]; [6],710 nM
O=C(CCC1CCN(Cc2ccccc2)CC1)c1ccc(NCCN2CCCCC2)cc1 [Example 60-22],IC50,[4]; [6],17 nM
"O=C(CCCC1CCN(Cc2ccccc2)CC1)c1ccc(N2CCCC2)cc1 [Example 69, 1-Benzyl-4-[3-(4-pyrrolidinobenzoyl)propyl]piperidine fumarate]",IC50,[4]; [6],220 nM
